# Assay results published in patent US9550073B2, “Therapeutic agent for allergic rhinitis” (SBI Pharmaceuticals Co., Ltd., priority 2011, dated 2017).
# Structures can show the parent of a compound that is named as a salt.
# What was measured:
# Format in all cases: in vivo, human
# [1] = tested on: inflamed site of the nasal mucosa; assay: ALA-PDD: PpIX accumulation in the nasal mucosa after oral ALA hydrochloride; details: 3 subject volunteers with allergic rhinitis; 20 mg/kg oral; 408 nm violet light after about 6 hours
# Protocol: (§1) To 3 subject volunteers with allergic rhinitis, 20 mg/kg of ALA hydrochloride was orally administered, and violet light of 408 nm was irradiated into the nasal cavity after about 6 hours using a bronchoscope enabling fluorescence observation (SAFE-3000 from Pentax) to perform ALA-PDD. […] The light of a red LED (light emitting diode) (FIG. 2) having a wavelength of 635 nm was irradiated on the inflamed site of the nasal mucosa until the red fluorescence could not be visually observed (FIG. 3). More specifically, the red LED light having a wavelength of 635 nm was irradiated for a certain period, followed by discontinuing the PDT irradiation; a bronchoscope (SAFE-3000 from Pentax) was inserted into the nasal cavity by interchanging with the irradiation device; and after observing red light, the PDT irradiation was again performed.
# allergic rhinitis = assay: ALA-PDT with 635 nm red LED on the inflamed site after oral ALA hydrochloride, subjects with allergic rhinitis; details: 3 subjects; 20 mg/kg oral; 635 nm red LED until red fluorescence no longer visible
# Protocol: as §1
# [2] = tested on: allergic rhinitis due to pollinosis; assay: ALA-PDT with 635 nm red semiconductor laser into the entire nasal cavity after oral ALA hydrochloride, subjects with pollinosis; details: 20 mg/kg oral
# Protocol: To a total 12 subjects with pollinosis, 7 adult males and 5 adult females, 20 mg/kg of ALA hydrochloride was orally administered, and 6 hours later, 100 J of red semiconductor laser light having a wavelength of 635 nm was irradiated into the nasal cavity for 6 minutes. As a result, symptoms of a severe runny nose and sneezing due to pollinosis of the 12 subjects disappeared ([…]) or abated (5 subjects), and these effects were maintained until at least 1 year after the irradiation.
# [3] = tested on: allergic rhinitis due to pollinosis; assay: ALA-PDT with 635 nm red semiconductor laser after ALA hydrochloride in applied liquid form (transdermal, nasal cavity), subjects with pollinosis; details: 5% by weight in saline on cotton in the nasal cavity for 1 hour, 100 J of 635 nm laser for 6 minutes
# Protocol: Then, it was examined whether or not, even when the ALA hydrochloride was administered in an applied liquid form, it could treat allergic rhinitis. A saline solution comprising 5% by weight of ALA hydrochloride sufficiently soaked in cotton was applied to the nasal cavity of 4 adult male subjects with pollinosis, and the soaked cotton was left in place for 1 hour before being removed. 100 J of red semiconductor laser light having a wavelength of 635 nm was intranasally irradiated for 6 minutes immediately after removing the soaked cotton on 3 of the subjects and 1 hour after removing the soaked cotton on the remaining 1 subject. As a result, symptoms of a severe runny nose and sneezing due to pollinosis of the 4 subjects disappeared for the 1 subject irradiated 1 hour thereafter and abated for the 3 subjects irradiated immediately thereafter. […] In addition, the treatment by the liquid form application is shown to be more excellent treatment than that by oral administration in view of cost effectiveness and time effectiveness because the direct application of an ALA hydrochloride solution around an inflamed site of the nasal mucosa can more decrease the amount of ALA hydrochloride administered than oral administration and PpIX accumulates in a short time in the inflamed site of the nasal mucosa.
# [4] = of 12 subjects with pollinosis, 6 hours later 100 J of 635 nm laser for 6 minutes
smiles,measurement,setting,value
"NCC(=O)CCC(=O)O [ALA hydrochloride, 5-aminolevulinic acid]",inflamed site of the nasal mucosa by which PpIX was taken up (ALA-PDD fluorescence),[1],detected as red fluorescence
same,course of symptoms of runny nose and sneezing thereafter,allergic rhinitis,abated over several weeks
same,symptoms of a severe runny nose and sneezing until several days after the irradiation,allergic rhinitis,observed in the 3 subjects
same,time for which the effects were maintained after the irradiation,"[2]; 12 subjects with pollinosis, 100 J of 635 nm laser for 6 minutes",at least 1 year
same,subjects whose symptoms of a severe runny nose and sneezing abated,[2]; [4],5 subjects
same,subjects whose symptoms of a severe runny nose and sneezing disappeared,[2]; [4],3 subjects
same,"symptoms of a severe runny nose and sneezing, irradiated 1 hour after removing the soaked cotton",[3]; 1 subject,disappeared
same,"symptoms of a severe runny nose and sneezing, irradiated immediately after removing the soaked cotton",[3]; 3 subjects,abated
